Laboratory results as given in patent US11884709B2, “Peptides for the treatment of resorptive bone disease” (University of New Brunswick, priority 2015, dated 2024).
Entries after “also recorded” stand apart in the source; their conditions may differ. Where no end group is shown, it is not given here.

Tests used:
[1] = in vivo; cited from earlier work
[2] = tested on: two ovarian cancer cell lines; conditions: cited from earlier work
[3] = tested on: Tartrate-Resistant Acid Phosphatase (TRAP) in osteoclasts; assay: TRAP enzyme activity in conditioned media of osteoassay wells; assay type: cell-based, human; conditions: relative to controls
Method: Osteoclasts were fixed and stained for tartrate-resistant acid phosphatase (TRAP) using the leukocyte acid phosphatase kit (Sigma-Aldrich) according to the manufacturer's protocol. Images were acquired in EVOS brightfield microscope. To visualize actin ring formation in osteoclasts, tetramethyl rhodamine-phalloidin (Life Technologies Inc.) staining was done for 1 hour. The cell nuclei were counterstained with 1 μg/ml Hoechst 33342 (Sigma-Aldrich) in phosphate buffered saline for 5 minute. Images were acquired in EVOS fluorescence microscope. TRAP enzyme activity was measured at 37° C. with a substrate buffer (125 mg/ml Naphthol AS-BI phosphoric acid in diazotized fast garnet base chemical solution, Sigma-Aldrich) at 560 nm.
(§1) 10^5 BMCs per well in 24 well Corning osteoassay plate were treated with human M-CSF (10 ng/mL) and 10 ng/mL of human RANKL. […] Osteoassay plate was scanned using ChemiDoc MP and area of resorption pits in each well was quantified using ImageJ 1.48v Software.
(§2) The effect of C-terminal Soricidin peptides on osteoclast activity and bone resorption was examined using 24-well corning assay plates that have a 3D osteo surface that mimics in vivo bone for in vitro bone cell assays. […] Resorption of the osteosurface is evident from the resorption pits/trails made by the osteoclasts, and the extent of resorption was quantified. […]

[4] = tested on: osteoclast differentiation; assay: Osteoclast differentiation from bone marrow mononuclear cells (M-CSF and RANKL); assay type: cell-based, human; conditions: 150 μM (C5)
Method: (§3) Osteoclasts were generated in vitro by the modified method of Cody et al., 2011, using fresh human bone marrow aspirates. Briefly, bone marrow mononuclear cells (BMC) separated on a density gradient medium in SepMate tubes were resuspended in growth media (α-MEM with 10% FBS) and cultured for 3 days in T75 flask with 35 ng/mL M-CSF at 37° C. in a 5% CO2 incubator. For osteoclast differentiation experiments, 10^5 cells/well of BM monocytes-macrophage precursors seeded in a 24 well plate was treated with human M-CSF and RANKL, and media replenished with fresh cytokines every third day for two weeks.
as §1
as §2, with “quantified. Furthermore, the percentage activity of TRAP, one of the enzymes involved in bone resorption, was determined in tandem with the resorption assay (FIG. 7c).” for “quantified.”

[5] = tested on: human osteoclasts; assay: Osteoassay: bone resorption by osteoclasts on Corning osteoassay plate; assay type: cell-based; conditions: for resorptive activity on corning osteoassay surface: 150 μM (C5); for bone resorption by osteoclasts / osteoclast activity (percentage resorption): Corning osteoassay plate, 1 uM-150 uM, M-CSF and RANKL, day 12
Method: as §3
10^5 BMCs per well in 24 well Corning osteoassay plate were treated with human M-CSF (10 ng/mL) and 10 ng/mL of human RANKL. Undifferentiated condition includes cells treated with M-CSF only. The treatment wells had both M-CSF and RANKL followed by addition of TRPV6 peptide antagonists SOR-C13 and SOR-C27 at concentrations range 1 μM-150 μM tested in triplicate wells, vehicle or PBS buffer in which the peptides are dissolved and the standard anti-resorbing agent, Zoledronate were included for the experiment. Replenishment with fresh media containing M-CSF, RANKL and SOR peptides in respective wells was carried out every third day. On day 12, cells in osteoplates were removed by incubating with 10% bleach for 10 minutes; wells were washed with distilled water three times and air-dried for 3-5 hrs. Osteoassay plate was scanned using ChemiDoc MP and area of resorption pits in each well was quantified using ImageJ 1.48v Software.
Experiments were done in triplicates for each condition and data presented as mean±SD. All statistical analyses were done using GraphPad Prism 6, one way ANOVA and Dunnett's multiple comparison test was used to determine significance between groups and P<0.05 is considered statistically significant.
The effect of C-terminal Soricidin peptides on osteoclast activity and bone resorption was examined using 24-well corning assay plates that have a 3D osteo surface that mimics in vivo bone for in vitro bone cell assays. The inorganic bone biomaterial surface in each well is capable of supporting the functional properties of osteogenic cells. Only osteoclasts, specialized cells expressing bone-resorbing enzymes such as TRAP, cathepsin K and collagenase, can resorb such an artificial osteosurface. Resorption of the osteosurface is evident from the resorption pits/trails made by the osteoclasts, and the extent of resorption was quantified. Furthermore, the percentage activity of TRAP, one of the enzymes involved in bone resorption, was determined in tandem with the resorption assay (FIG. 7c). The anti-resorptive potential of selective TRPV6 antagonist peptides, SOR-C13 and SOR-C27 at various concentrations was observed (FIGS. 7 and 8) was observed.

[6] = tested on: U266 cells; assay: 48 hr peptide treatment, myeloma cell growth (U266); assay type: cell-based, human; conditions: 1 uM-500 uM
Method: C1=1 uM, C2=10 uM, C3=50 uM, C4=100 uM, C5=150 uM, C6=250 uM, C7=400 uM, C8=500 uM.
(§4) The expression of TRPV6 protein was also observed in human myeloma cells by immunohistochemistry on myeloma bone sections (FIG. 1C) and in myeloma cell lines by western blotting (FIG. 9). Moreover, the growth inhibitory potential of SOR-C13 and SOR-C27 was determined using human myeloma cell lines U266 and KMM-1 (FIGS. 10 and 11). There exists a reciprocal relationship between myeloma cells and osteoclasts in the bone marrow milieu where myeloma cells secrete many factors that promote osteoclast activity, and in turn osteoclasts induce myeloma cell growth and survival.

[7] = tested on: KMM-1 cells; assay: 48 hr peptide treatment, myeloma cell growth (KMM-1); assay type: cell-based, human; conditions: 1 uM-500 uM
Method: C1=1 uM, C2=10 uM, C3=50 uM, C4=100 uM, C5=150 uM, C6=250 uM, C7=300 uM, C8=400 uM, C9=500 uM.
as §4

Substance	paralysis [1]	calcium uptake [2]	TRAP enzyme activity [3]	osteoclast differentiation in vitro [4]	resorptive activity on corning osteoassay surface [5]	bone resorption by osteoclasts / osteoclast activity (percentage resorption) [5]	cell growth [6]	cell growth [7]
Soricidin: fifty-four amino acid paralytic peptide isolated from the submaxilary saliva gland of the Northern Short-tailed Shrew (Blarina brevicauda) (DCSQDCAACSILARPAELNTETCILECEGKLSSNDTEGGLCKEFLHPSKVDLPR; UniProt P0C2P6 1-54, looked up)	caused paralysis	inhibited calcium uptake	–	–	–	–	–	–
EGKLSSNDTEGGLCKEFLHPSKVDLPR [SOR-C27, peptide corresponding to the C-terminal end of soricidin; TRPV6 peptide antagonist]	–	–	decrease in TRAP enzyme activity relative to controls	inhibited osteoclast differentiation	significantly reduced their resorptive activity	dose-dependent Inhibition of osteoclast activity; also recorded: dose-dependent decrease in bone resorption	dose-dependent inhibition of cell growth	dose-dependent inhibition of cell growth
KEFLHPSKVDLPR [SOR-C13, KEFLHPSKVDLPR]	–	–	decrease in TRAP enzyme activity relative to controls	inhibited osteoclast differentiation	significantly reduced their resorptive activity	inhibition of osteoclast activity; also recorded: dose-dependent decrease in bone resorption	dose-dependent inhibition of cell growth	dose-dependent inhibition of cell growth
